Results published in paper PMC8952208, “Synthesis, Antiplasmodial, and Antileukemia Activity of Dihydroartemisinin–HDAC Inhibitor Hybrids as Multitarget Drugs” (Pharmaceuticals, 2022).

What was measured:
HL60 cells = assay: CellTiter-Glo cell viability assay, HL60; format: cell-based, human; settings: Homo sapiens, HL-60; AML; 72 h, CellTiter-Glo, n = 3
Experimental: (§1) Healthy individually-derived fibroblasts were cultured in DMEM supplemented with 10% FCS. Regular cell line authentication was performed short tandem repeat (STR) analysis (DNA fingerprinting), followed by comparison with the original DSMZ cell line database.
(§2) Cell viability assay was performed with leukemic cell lines after 72 h incubation with the respective inhibitors using ATP-based CellTiter-Glo luminescent assay (Promega, Madison, WI, USA).

P. falciparum Dd2 = assay: microbe, parasite or virus in culture; format: cell-based; settings: Plasmodium falciparum, DD2, 72 h, read-out: PfDd2 IC50
Experimental: (§3) [38, 39] […] After three days of incubation at 37 °C, 5% CO2 and 5% O2 plates were frozen until analyzed by HRP2-ELISA. All compounds were evaluated in duplicate in at least two independent experiments. The IC50 was determined by nonlinear regression analysis of log concentration-response curves using the drc-package v3.0.1 [40] of R v4.0.5..

P. falciparum 3D7 = assay: microbe, parasite or virus in culture; format: cell-based; settings: Plasmodium falciparum, 3D7, 72 h; asexual blood stages, three days incubation; n ≥ 2 in duplicate, mean ± SD; read-out: Pf3D7 IC50
Experimental: as §3

HPBALL cells = assay: CellTiter-Glo cell viability assay, HPBALL; format: cell-based, human; settings: Homo sapiens, HPBALL; T-ALL; 72 h, CellTiter-Glo, n = 3
Experimental: as §1, §2

A2780 cells = assay: MTT cell viability assay; format: cell-based; settings: Homo sapiens, 72 h, n ≥ 3 in triplicate, mean ± SD
Experimental: Reagents were obtained from PAN Biotech, Aidenbach Germany. The cell line was cultured at 37 °C under humidified air with 5% CO2 to a confluence of 80–90% before being used for further assays.
Intrinsic cytotoxicity of test compounds was determined by an MTT assay as previously described. A2780 cells were seeded in 96-well plates (Starlab GmbH, Hamburg, Germany) at a density of 20,000 cells/well and allowed to attach for 12 h. Cells were then treated with increasing concentrations of the test compounds. After 72 h, MTT (3-(4,5-dimethylthiazol-2-yl)-2,5-diphenyltetrazolium bromide) (BioChemica, Applichem GmbH, Darmstadt, Germany) solution (5 mg/mL in phosphate-buffered saline) was added to determine cell survival. The formazan dye was dissolved in DMSO (Sigma-Aldrich, Darmstadt, Germany) after 1 h. Absorbance was measured at 570 nm and 690 nm in a Multiskan microplate photometer (Thermo Fisher Scientific, Waltham, MA, USA). Concentration-response curves were generated using the four-parameter logistic equation (GraphPad Prism 9.0, San Diego, USA), and mean IC50 values were calculated in triplicates based on at least three different experiments.

human HDAC6 (hHDAC6) = target: T1, human HDAC6 (hHDAC6) (Homo sapiens, UniProt Q9UBN7); assay: In vitro human HDAC6 assay (ZMAL substrate); format: biochemical; settings: for SI 1/6: Selectivity Index = (hHDAC1 IC50)/(hHDAC6 IC50)
T1 construct: purchased BPS Bioscience Inc. 50006
T1 sequence (Q9UBN7 1-1215): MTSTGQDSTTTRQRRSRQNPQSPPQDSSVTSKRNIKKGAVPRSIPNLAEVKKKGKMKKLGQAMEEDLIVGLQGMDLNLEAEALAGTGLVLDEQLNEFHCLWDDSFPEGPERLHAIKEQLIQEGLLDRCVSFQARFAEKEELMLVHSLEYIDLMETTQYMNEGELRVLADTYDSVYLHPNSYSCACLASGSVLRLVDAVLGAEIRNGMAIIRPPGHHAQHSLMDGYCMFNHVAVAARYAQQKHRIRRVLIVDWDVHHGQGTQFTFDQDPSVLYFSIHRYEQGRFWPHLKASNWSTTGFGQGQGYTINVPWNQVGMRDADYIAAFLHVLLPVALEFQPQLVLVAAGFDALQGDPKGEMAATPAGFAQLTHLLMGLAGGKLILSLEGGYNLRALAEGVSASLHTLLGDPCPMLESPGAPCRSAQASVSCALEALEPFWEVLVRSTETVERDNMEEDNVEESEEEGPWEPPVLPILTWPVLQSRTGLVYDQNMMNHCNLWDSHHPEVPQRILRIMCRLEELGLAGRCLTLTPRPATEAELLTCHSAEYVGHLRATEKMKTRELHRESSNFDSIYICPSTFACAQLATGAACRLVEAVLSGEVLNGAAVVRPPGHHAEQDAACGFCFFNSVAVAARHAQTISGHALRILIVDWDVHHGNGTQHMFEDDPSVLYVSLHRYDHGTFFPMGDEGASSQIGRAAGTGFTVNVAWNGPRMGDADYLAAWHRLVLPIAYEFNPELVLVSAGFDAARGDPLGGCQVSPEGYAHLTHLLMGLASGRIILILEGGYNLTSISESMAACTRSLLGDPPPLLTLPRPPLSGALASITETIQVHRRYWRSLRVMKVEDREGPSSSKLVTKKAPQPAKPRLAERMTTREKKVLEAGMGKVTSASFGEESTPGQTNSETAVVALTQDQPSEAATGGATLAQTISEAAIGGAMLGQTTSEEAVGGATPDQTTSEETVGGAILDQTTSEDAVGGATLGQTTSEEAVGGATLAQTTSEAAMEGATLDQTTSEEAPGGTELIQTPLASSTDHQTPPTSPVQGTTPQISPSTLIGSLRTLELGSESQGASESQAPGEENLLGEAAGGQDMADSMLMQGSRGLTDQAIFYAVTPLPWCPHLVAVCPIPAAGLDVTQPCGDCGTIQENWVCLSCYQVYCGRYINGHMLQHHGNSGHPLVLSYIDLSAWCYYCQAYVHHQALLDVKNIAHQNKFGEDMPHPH
Experimental: (§4) OptiPlate-96 black microplates (Perkin Elmer Inc., Waltham, MA, USA) were used with an assay volume of 50 µL. […] After an incubation time of 90 min, 50 µL of 0.4 mg/mL trypsin in trypsin buffer (50 mM Tris-HCl, pH 8.0, and 100 mM NaCl) was added, followed by further incubation at 37 °C for 30 min.

MOLM13 cells = assay: CellTiter-Glo cell viability assay, MOLM13; format: cell-based, human; settings: Homo sapiens, MOLM-13; AML; 72 h, CellTiter-Glo, n = 3
Experimental: as §1, §2

NALM6 cells = assay: CellTiter-Glo cell viability assay, NALM6; format: cell-based, human; settings: Homo sapiens, NALM-6; B-ALL; 72 h, CellTiter-Glo, n = 3
Experimental: as §1, §2

K562 cells = assay: CellTiter-Glo cell viability assay, K562; format: cell-based, human; settings: Homo sapiens, K562; CML; 72 h, CellTiter-Glo, n = 3
Experimental: as §1, §2

human HDAC1 (hHDAC1) = target: T2, human HDAC1 (hHDAC1) (Homo sapiens, UniProt Q13547); assay: In vitro human HDAC1 assay (ZMAL substrate); format: biochemical
T2 construct: purchased BPS Bioscience Inc. 50051
T2 sequence (Q13547 whole entry): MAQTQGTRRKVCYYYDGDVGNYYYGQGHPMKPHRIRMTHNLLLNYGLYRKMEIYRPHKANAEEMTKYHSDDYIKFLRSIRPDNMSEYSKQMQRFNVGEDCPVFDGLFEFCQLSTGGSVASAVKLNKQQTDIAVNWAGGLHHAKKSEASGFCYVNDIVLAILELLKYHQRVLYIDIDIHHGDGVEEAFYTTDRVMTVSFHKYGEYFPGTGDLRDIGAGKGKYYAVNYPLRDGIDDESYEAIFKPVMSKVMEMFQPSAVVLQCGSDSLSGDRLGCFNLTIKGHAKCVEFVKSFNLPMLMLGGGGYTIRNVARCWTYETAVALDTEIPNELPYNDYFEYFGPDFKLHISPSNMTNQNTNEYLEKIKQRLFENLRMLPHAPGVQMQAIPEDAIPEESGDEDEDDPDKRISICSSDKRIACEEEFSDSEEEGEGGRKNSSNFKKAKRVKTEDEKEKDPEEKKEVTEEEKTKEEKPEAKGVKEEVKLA
Experimental: as §4

[1] = system: five leukemia cell lines (K562, HL60, NALM6, HPBALL, MOLM13); assay: CellTiter-Glo cell viability assay, panel of five leukemia cell lines; format: cell-based, human; settings: number of the five leukemia cell lines in which DHA is exceeded
Experimental: as §1, §2

P. falciparum Dd2 R539T = assay: In vitro P. falciparum growth inhibition assay (HRP2), Dd2 R539T; format: cell-based; settings: Plasmodium falciparum, DD2, 72 h, read-out: PfDd2 R539T IC50
Experimental: Antiplasmodial activity of DHA–HDACi hybrids was evaluated against the asexual stages of the laboratory P. falciparum strains (3D7, chloroquine-sensitive strain, and Dd2, chloroquine-resistant strain, and Dd2 R539T (MRA-1255), provided by BEI Resources carrying a kelch13-mutation that conveys partial artemisinin resistance), using the histidine-rich protein 2 (HRP2) assay, as previously described. In brief: 96-well plates were precoated with the tested compounds in a three-fold serial dilution before ring-stage parasites were added in complete culture medium at a hematocrit of 1.5% and a parasitaemia of 0.05%. After three days of incubation at 37 °C, 5% CO2 and 5% O2 plates were frozen until analyzed by HRP2-ELISA. All compounds were evaluated in duplicate in at least two independent experiments. The IC50 was determined by nonlinear regression analysis of log concentration-response curves using the drc-package v3.0.1 [40] of R v4.0.5..

Compound	IC50 (HL60 cells) [nM]	IC50 (P. falciparum Dd2) [nM]	IC50 (P. falciparum 3D7) [nM]	IC50 (HPBALL cells) [nM]	IC50 (A2780 cells) [nM]	IC50 (human HDAC6 (hHDAC6)) [nM]	IC50 (MOLM13 cells) [nM]	IC50 (NALM6 cells) [nM]	IC50 (K562 cells) [nM]	IC50 (human HDAC1 (hHDAC1)) [nM]	SI 1/6 (human HDAC6 (hHDAC6))	antiproliferative activity compared to DHA [1]	inhibition at 3.33 µM (human HDAC1 (hHDAC1)) [%]	IC50 (P. falciparum Dd2 R539T) [nM]
C[C@@H]1CC[C@H]2[C@@H](C)C(OCc3ccc(/C=C/C(=O)O)cc3)O[C@@H]3O[C@@]4(C)CC[C@@H]1[C@]32OO4 (stereo partly drawn) [Compound 6a, (E)-3-(4-((((3R,5aS,6R,8aS,9R,12R,12aR)-3,6,9-Trimethyldecahydro-12H-3,12-epoxy[1,2]dioxepino[4,3-i]isochromen-10-yl)oxy)methyl)phenyl)acrylic acid]	2530 ± 560	5.8 ± 2.8	5.9 ± 0.7	23900 ± 4690	3380 ± 210	> 10000	680 ± 90	1310 ± 110	4010 ± 600	> 10000				
C[C@H]1[C@H](Sc2ccc(CC(=O)NO)cc2)O[C@@H]2O[C@@]3(C)CC[C@H]4[C@H](C)CC[C@@H]1[C@@]24OO3 [(β)-7e, N-Hydroxy-2-(4-(((3R,5aS,6R,8aS,9R,10S,12S,12aR)-3,6,9-trimethyldecahydro-12H-3,12-epoxy[1,2]dioxepino[4,3-i]isochromen-10-yl)thio)phenyl)acetamide]		1.6 ± 0.8	2.6 ± 1.3	20600 ± 6130	2090 ± 420	1000 ± 130	640 ± 170	770 ± 80	1710 ± 330	> 10000	>10			
C[C@@H]1CC[C@H]2[C@@H](C)C(OCc3ccc(/C=C/C(=O)Nc4ccccc4N)cc3)O[C@@H]3O[C@@]4(C)CC[C@@H]1[C@]32OO4 (stereo partly drawn) [Compound 8, (E)-N-(2-Aminophenyl)-3-(4-((((3R,5aS,6R,8aS,9R,12R,12aR)-3,6,9-trimethyldecahydro-12H-3,12-epoxy[1,2]dioxepino[4,3-i]isochromen-10-yl)oxy)methyl)phenyl)acrylamide]	1640 ± 170	2.5 ± 0.14	2.5 ± 1.4	1690 ± 190	1470 ± 980	> 10000	490 ± 80	340 ± 30	690 ± 110	> 3330		exceeded the antiproliferative potential of DHA in four out of five cell lines	41	
C[C@H]1[C@H](OCc2ccc(C(=O)NO)cc2)O[C@@H]2O[C@@]3(C)CC[C@H]4[C@H](C)CC[C@@H]1[C@@]24OO3 [Compound 7d, N-Hydroxy-4-((((3R,5aS,6R,8aS,9R,10R,12R,12aR)-3,6,9-trimethyldecahydro-12H-3,12-epoxy[1,2]dioxepino[4,3-i]isochromen-10-yl)oxy)methyl)benzamide]	2410 ± 450	2 ± 0.7	2.8 ± 1.3	6810 ± 540	1310 ± 320	14 ± 2	390 ± 50	360 ± 50	1000 ± 360	2490 ± 240	178			1.2 ± 0.8
C[C@H]1[C@@H](Sc2ccc(CC(=O)NO)cc2)O[C@@H]2O[C@@]3(C)CC[C@H]4[C@H](C)CC[C@@H]1[C@@]24OO3 [(α)-7e, N-Hydroxy-2-(4-(((3R,5aS,6R,8aS,9R,10R,12S,12aR)-3,6,9-trimethyldecahydro-12H-3,12-epoxy[1,2]dioxepino[4,3-i]isochromen-10-yl)thio)phenyl)acetamide]	1620 ± 120	1.8 ± 0.8	3.1 ± 0.7	3340 ± 370	1830 ± 100	1100 ± 75	450 ± 180	440 ± 10	770 ± 240	> 10000	>9			
C[C@@H]1CC[C@H]2[C@@H](C)C(SCCCCCC(=O)NO)O[C@@H]3O[C@@]4(C)CC[C@@H]1[C@]32OO4 (stereo partly drawn) [Compound 7b, N-Hydroxy-6-(((3R,5aS,6R,8aS,9R,12S,12aR)-3,6,9-trimethyldecahydro-12H-3,12-epoxy[1,2]dioxepino[4,3-i]isochromen-10-yl)thio)hexanamide]	2070 ± 30	6.6 ± 2.5	5.2 ± 0.4	2410 ± 380	1520 ± 50	45 ± 5	580 ± 190	260 ± 10	910 ± 320	430 ± 46	10			3 ± 1.2
